In one test the target is CDK9/Cyclin T1 complex (Homo sapiens, UniProt P50750). In words: CDK9 kinase inhibition assay (Caliper/LabChip EZ Reader). The format is biochemical. The note with it: CDK9/Cyclin T1 8 nM, ATP 2 mM, 15 min at 27° C. Summed up:
(§1)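 Incubation times were set for ~20% (±5%) peptide phosphorylation by uninhibited enzyme: CDK7 35 min, CDK2 35 min (0.5 nM complex, 2 μM 5-FAM-CDK7tide, 2 mM MgCl2), CDK12 3 hr (50 nM, 2 μM 5-FAM-CDK9tide, 2 mM MgCl2), CDK9 15 min (8 nM, 2 μM 5-FAM-CDK9tide, 10 mM MgCl2). Read-out on LabChip EZ Reader, 27° C.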

For another test, the target named is CDK2/Cyclin E1 complex (Homo sapiens, UniProt P24941). In words: CDK2 kinase inhibition assay (Caliper/LabChip EZ Reader). To be noted: CDK2/Cyclin E1 0.5 nM, ATP 2 mM, 35 min at 27° C. In kind it is biochemical. Summed up:
as §1

Test [1] addresses CDK7/Cyclin H/MAT1 complex (Homo sapiens, UniProt P50613). The test can be described thus: CDK7 kinase inhibition assay (Caliper/LabChip EZ Reader). The format is biochemical. The note with it: CDK7/Cyclin H/MAT1 6 nM, ATP 2 mM, 35 min at 27° C. Summed up: as §1
Test [2] addresses T1, CDK12 (aa686-1082)/Cyclin K complex (Homo sapiens, UniProt Q9NYV4).
T1 construct: CDK12 (aa686-1082)/Cyclin K complex
The test can be described thus: CDK12 kinase inhibition assay (Caliper/LabChip EZ Reader). In kind it is biochemical. The note with it: CDK12 (aa686-1082)/Cyclin K 50 nM, ATP 2 mM, 3 hr at 27° C. The procedure, abridged:
as §1

Another test has as its system HCC70 cells. In words: Inhibition of proliferation of HCC70 cells (CyQUANT Direct, 72 hour). In kind it is cell-based, human. The note with it: read-out: Inhibition of Proliferation of HCC70 Cells (calculated IC50). The protocol:
HCC70 cells: HCC70 cells are a cell line derived from human triple negative breast cancer. Representative compounds of the invention were tested at different concentrations (from 4 μM to […]; 0.5 log serial dilutions) for their ability to inhibit the proliferation of HCC70 cells. Known CDK inhibitors dinaciclib or N-((1S,3R)-3-((5-chloro-4-(1H-indol-3-yl) pyrimidin-2-yl)amino)cyclohexyl)-5-((E)-4-(dimethylamino)but-2-enamido)picolinamide and triptolide were used as positive controls. Cells were grown in ATCC-formulated RPMI-1640 Medium (ATCC 30-2001)+10% FBS. The cells were cultured at 37° C. in a humidified chamber in the presence of 5% CO2. Proliferation assays were conducted over a 72 hour time period. CyQUANT® Direct Cell Proliferation Assay (Life Technologies, Chicago, Ill. USA) was used to assess the anti-proliferative effects of the compounds following manufacturer's directions and utilizing the reagents supplied with the CyQUANT® Direct Cell kit.

SMILES strings stand for the structures. Some results are limits rather than exact numbers.

Chain of CDK9/Cyclin T1 complex (P50750 whole entry): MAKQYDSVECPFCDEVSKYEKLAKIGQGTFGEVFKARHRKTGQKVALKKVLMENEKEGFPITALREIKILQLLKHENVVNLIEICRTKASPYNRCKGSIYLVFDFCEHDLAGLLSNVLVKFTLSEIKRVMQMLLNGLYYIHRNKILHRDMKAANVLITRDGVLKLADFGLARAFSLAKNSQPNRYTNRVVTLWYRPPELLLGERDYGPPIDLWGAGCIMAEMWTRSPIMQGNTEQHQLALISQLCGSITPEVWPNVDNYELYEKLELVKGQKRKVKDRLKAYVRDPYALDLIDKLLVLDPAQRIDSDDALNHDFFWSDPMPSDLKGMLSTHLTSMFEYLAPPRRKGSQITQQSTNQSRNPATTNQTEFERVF
Chain of CDK9/Cyclin T1 complex (O60563 whole entry partner): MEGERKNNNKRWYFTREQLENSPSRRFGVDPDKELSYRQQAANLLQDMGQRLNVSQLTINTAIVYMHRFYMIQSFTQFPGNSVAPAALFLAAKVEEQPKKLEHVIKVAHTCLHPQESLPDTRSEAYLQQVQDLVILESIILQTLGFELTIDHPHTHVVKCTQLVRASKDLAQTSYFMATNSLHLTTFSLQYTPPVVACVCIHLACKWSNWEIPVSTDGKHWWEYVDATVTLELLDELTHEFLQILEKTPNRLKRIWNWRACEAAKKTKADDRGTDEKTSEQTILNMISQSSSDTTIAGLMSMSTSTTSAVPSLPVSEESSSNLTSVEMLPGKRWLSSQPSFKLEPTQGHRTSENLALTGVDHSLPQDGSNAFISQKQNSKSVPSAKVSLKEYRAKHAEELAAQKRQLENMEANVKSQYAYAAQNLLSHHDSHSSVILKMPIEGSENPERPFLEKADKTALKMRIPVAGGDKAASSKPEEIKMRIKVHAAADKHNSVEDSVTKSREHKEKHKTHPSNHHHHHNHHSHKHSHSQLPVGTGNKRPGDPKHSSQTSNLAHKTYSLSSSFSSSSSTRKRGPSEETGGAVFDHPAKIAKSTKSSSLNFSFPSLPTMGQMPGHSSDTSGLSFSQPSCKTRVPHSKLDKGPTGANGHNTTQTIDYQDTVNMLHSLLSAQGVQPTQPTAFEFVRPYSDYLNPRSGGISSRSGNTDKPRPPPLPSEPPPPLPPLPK
T1 sequence (Q9NYV4 686-1082): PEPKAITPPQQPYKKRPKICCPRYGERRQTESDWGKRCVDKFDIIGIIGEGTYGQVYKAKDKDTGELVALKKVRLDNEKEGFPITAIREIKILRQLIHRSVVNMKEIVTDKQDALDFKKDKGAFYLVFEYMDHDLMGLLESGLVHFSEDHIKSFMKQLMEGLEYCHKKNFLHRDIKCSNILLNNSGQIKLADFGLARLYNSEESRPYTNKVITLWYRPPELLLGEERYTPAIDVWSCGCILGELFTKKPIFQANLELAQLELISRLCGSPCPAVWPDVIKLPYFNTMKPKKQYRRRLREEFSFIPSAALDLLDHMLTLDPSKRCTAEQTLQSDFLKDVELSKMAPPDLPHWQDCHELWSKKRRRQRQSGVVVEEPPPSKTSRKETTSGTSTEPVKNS
T1 sequence (O75909 whole entry partner, the tested form may be a part): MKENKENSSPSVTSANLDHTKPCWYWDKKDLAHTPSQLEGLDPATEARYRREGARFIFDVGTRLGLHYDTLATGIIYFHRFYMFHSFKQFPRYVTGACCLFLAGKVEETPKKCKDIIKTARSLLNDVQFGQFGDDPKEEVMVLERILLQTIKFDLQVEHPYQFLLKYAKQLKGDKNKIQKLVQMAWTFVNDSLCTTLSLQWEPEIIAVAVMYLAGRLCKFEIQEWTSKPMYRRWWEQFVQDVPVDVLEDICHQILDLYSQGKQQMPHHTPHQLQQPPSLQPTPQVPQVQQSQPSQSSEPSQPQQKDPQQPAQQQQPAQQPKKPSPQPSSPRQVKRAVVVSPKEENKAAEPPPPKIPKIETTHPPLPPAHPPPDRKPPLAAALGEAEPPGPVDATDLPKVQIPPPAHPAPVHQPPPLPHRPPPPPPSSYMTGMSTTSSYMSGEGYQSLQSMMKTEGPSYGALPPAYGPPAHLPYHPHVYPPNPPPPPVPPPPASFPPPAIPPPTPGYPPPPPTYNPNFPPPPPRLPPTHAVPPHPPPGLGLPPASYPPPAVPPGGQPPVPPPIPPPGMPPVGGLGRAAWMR
Chain of CDK7/Cyclin H/MAT1 complex (P50613 whole entry, the tested form may be a part): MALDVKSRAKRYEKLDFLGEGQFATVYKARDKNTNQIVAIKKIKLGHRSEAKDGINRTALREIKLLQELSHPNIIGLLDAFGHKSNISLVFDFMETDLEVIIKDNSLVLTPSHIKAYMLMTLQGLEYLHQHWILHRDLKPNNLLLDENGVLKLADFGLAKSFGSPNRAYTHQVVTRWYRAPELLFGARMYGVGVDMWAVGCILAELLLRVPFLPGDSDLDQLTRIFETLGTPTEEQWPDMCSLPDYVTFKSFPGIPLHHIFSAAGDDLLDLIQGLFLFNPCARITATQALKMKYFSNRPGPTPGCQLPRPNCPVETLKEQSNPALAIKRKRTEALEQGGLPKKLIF
Chain of CDK7/Cyclin H/MAT1 complex (P51946 whole entry partner, the tested form may be a part): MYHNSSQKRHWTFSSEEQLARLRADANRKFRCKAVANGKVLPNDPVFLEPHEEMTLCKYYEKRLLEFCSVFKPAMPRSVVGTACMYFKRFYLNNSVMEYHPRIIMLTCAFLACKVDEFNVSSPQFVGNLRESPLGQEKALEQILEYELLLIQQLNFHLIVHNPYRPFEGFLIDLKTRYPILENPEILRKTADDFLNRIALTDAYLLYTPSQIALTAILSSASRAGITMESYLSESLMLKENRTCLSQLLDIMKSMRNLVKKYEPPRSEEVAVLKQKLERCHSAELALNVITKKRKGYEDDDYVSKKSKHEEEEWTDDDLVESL
Chain of CDK7/Cyclin H/MAT1 complex (P51948 whole entry partner, the tested form may be a part): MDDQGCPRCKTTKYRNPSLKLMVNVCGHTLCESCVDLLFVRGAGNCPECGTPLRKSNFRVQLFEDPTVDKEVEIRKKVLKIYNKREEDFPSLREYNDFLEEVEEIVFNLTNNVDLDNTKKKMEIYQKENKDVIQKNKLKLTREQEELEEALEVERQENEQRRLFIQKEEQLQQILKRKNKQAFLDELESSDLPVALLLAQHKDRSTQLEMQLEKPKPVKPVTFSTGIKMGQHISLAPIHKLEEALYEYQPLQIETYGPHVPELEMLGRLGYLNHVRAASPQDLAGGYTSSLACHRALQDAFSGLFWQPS

Take `[O-][S+](c1ccc2c(-c3nc(NC4CCCNC4)ncc3C(F)(F)F)c[nH]c2c1)C(F)F` (centres unmarked) [Compound 380]: the IC50 against CDK9/Cyclin T1 complex was 200 to 5000 nM; against CDK2/Cyclin E1 complex it was 200 to 5000 nM; in test [1] it was below 20 nM; in test [2], 200 to 5000 nM; in the test with HCC70 cells it was below 100 nM.

For the molecule `N#Cc1ccc2c(-c3nc(N[C@H]4CCC5(CCC5)NC4)ncc3C(F)(F)F)c[nH]c2c1` [Compound 378], the IC50 against CDK9/Cyclin T1 complex is at least 5000 nM; against CDK2/Cyclin E1 complex it was at least 5000 nM; in test [1] it was 20 to 200 nM; in test [2], at least 5000 nM; in the test with HCC70 cells it was 1000 to 5000 nM.

With `CNC(=O)c1ccc2c(-c3nc(NC4CCCNC4)ncc3C(F)(F)F)c[nH]c2n1` (centres unmarked) [Compound 297], the IC50 was 200 to 5000 nM against CDK9/Cyclin T1 complex; 200 to 5000 nM at CDK2/Cyclin E1 complex; below 20 nM in test [1]; 200 to 5000 nM in test [2]; below 100 nM with HCC70 cells.

With `O=C(c1ccc2c(-c3nc(NC4CCCNC4)ncc3C(F)(F)F)c[nH]c2c1)N1CCC(O)(C(F)(F)F)C1` (centres unmarked) [Compound 299], the IC50 is 200 to 5000 nM on CDK9/Cyclin T1 complex; 200 to 5000 nM on CDK2/Cyclin E1 complex; below 20 nM in test [1]; 200 to 5000 nM in test [2]; 1000 to 5000 nM with HCC70 cells.

On to `FC(F)(F)c1cnc(NC2CCCNC2)nc1-c1c[nH]c2cc(-c3ccc4c(c3)OCCO4)ccc12` (centres unmarked) [Compound 342], for which the IC50 is at least 5000 nM at CDK9/Cyclin T1 complex; at least 5000 nM at CDK2/Cyclin E1 complex; 20 to 200 nM in test [1]; 200 to 5000 nM in test [2]; 1000 to 5000 nM in the test on HCC70 cells.

With `N#Cc1ccc2c(-c3nc(NC4CNCCC4O)ncc3C(F)(F)F)c[nH]c2c1` (centres unmarked) [Compound 355], the IC50 was at least 5000 nM at CDK9/Cyclin T1 complex; at least 5000 nM at CDK2/Cyclin E1 complex; 20 to 200 nM in test [1]; 200 to 5000 nM in test [2]; 100 to 1000 nM with HCC70 cells.

Regarding `O=S(=O)(c1ccc2c(-c3nc(NC4CCCNC4)ncc3C(F)(F)F)c[nH]c2c1)C(F)F` (centres unmarked) [Compound 375], the IC50 on CDK9/Cyclin T1 complex was 200 to 5000 nM; on CDK2/Cyclin E1 complex, 200 to 5000 nM; in test [1], below 20 nM; in test [2] it was 200 to 5000 nM; with HCC70 cells, 100 to 1000 nM.

Turning to `O=C(c1ccc2c(-c3nc(NC4CCCNC4)ncc3C(F)(F)F)c[nH]c2c1)N1CCC(O)(C(F)(F)F)C1` (centres unmarked) [Compound 300], the IC50 against CDK9/Cyclin T1 complex is 200 to 5000 nM; against CDK2/Cyclin E1 complex, 200 to 5000 nM; in test [1], below 20 nM; in test [2], 200 to 5000 nM; in the test with HCC70 cells it was 100 to 1000 nM.

As for `CCc1cnc(NC2CCCNC2)nc1-c1c[nH]c2c(S(=O)(=O)C(C)C)cccc12` (centres unmarked) [Compound 356], the IC50 is at least 5000 nM at CDK9/Cyclin T1 complex; at least 5000 nM on CDK2/Cyclin E1 complex; 20 to 200 nM in test [1]; at least 5000 nM in test [2]; 100 to 1000 nM in the test with HCC70 cells.

`Cn1cc(-c2ccc3c(-c4nc(NC5CCCNC5)ncc4C(F)(F)F)c[nH]c3c2)ccc1=O` (centres unmarked) [Compound 321]: the IC50 against CDK9/Cyclin T1 complex was at least 5000 nM; against CDK2/Cyclin E1 complex it was at least 5000 nM; in test [1], below 20 nM; in test [2] it was 200 to 5000 nM; in the test on HCC70 cells it was 100 to 1000 nM.

For `CC(=O)c1ccc2c(-c3nc(N[C@H]4CCCNC4)ncc3C(F)(F)F)c[nH]c2c1` [Compound 359], the IC50 on CDK9/Cyclin T1 complex is 200 to 5000 nM; against CDK2/Cyclin E1 complex, 200 to 5000 nM; in test [1] it was below 20 nM; in test [2] it was 200 to 5000 nM; with HCC70 cells, below 100 nM.

Regarding `N#Cc1ccc2c(-c3nc(N[C@@H]4CNCC[C@H]4F)ncc3C(F)(F)F)c[nH]c2c1` [Compound 351], the IC50 against CDK9/Cyclin T1 complex is 200 to 5000 nM; against CDK2/Cyclin E1 complex, 200 to 5000 nM; in test [1], below 20 nM; in test [2] it was 200 to 5000 nM; with HCC70 cells, below 100 nM.

In the case of `NC(=O)c1cccc(-c2ccc3c(-c4nc(NC5CCCNC5)ncc4C(F)(F)F)c[nH]c3c2)c1` (centres unmarked) [Compound 314], the IC50 was 200 to 5000 nM against CDK9/Cyclin T1 complex; 200 to 5000 nM at CDK2/Cyclin E1 complex; below 20 nM in test [1]; 200 to 5000 nM in test [2]; 100 to 1000 nM in the test with HCC70 cells.
